In publication PMC9661477, “New Dual P-Glycoprotein (P-gp) and Human Carbonic Anhydrase XII (hCA XII) Inhibitors as Multidrug Resistance (MDR) Reversers in Cancer Cells” (Journal of Medicinal Chemistry, 2022):
Structures can show the parent of a compound that is named as a salt.

Assays:
P-gp = target: T1, P-gp (Homo sapiens, UniProt P08183); experiment: calcein-AM transport inhibition in MDCK-MDR1 cells; format: cell-based; settings: mean ± SEM
T1 construct: expressed in transfected cells; host or cells: MDCK-MDR1 (Madin-Darby Canine Kidney, transfected; gift from Prof; P. Borst, NKI-AVL)
T1 sequence (P08183 whole entry): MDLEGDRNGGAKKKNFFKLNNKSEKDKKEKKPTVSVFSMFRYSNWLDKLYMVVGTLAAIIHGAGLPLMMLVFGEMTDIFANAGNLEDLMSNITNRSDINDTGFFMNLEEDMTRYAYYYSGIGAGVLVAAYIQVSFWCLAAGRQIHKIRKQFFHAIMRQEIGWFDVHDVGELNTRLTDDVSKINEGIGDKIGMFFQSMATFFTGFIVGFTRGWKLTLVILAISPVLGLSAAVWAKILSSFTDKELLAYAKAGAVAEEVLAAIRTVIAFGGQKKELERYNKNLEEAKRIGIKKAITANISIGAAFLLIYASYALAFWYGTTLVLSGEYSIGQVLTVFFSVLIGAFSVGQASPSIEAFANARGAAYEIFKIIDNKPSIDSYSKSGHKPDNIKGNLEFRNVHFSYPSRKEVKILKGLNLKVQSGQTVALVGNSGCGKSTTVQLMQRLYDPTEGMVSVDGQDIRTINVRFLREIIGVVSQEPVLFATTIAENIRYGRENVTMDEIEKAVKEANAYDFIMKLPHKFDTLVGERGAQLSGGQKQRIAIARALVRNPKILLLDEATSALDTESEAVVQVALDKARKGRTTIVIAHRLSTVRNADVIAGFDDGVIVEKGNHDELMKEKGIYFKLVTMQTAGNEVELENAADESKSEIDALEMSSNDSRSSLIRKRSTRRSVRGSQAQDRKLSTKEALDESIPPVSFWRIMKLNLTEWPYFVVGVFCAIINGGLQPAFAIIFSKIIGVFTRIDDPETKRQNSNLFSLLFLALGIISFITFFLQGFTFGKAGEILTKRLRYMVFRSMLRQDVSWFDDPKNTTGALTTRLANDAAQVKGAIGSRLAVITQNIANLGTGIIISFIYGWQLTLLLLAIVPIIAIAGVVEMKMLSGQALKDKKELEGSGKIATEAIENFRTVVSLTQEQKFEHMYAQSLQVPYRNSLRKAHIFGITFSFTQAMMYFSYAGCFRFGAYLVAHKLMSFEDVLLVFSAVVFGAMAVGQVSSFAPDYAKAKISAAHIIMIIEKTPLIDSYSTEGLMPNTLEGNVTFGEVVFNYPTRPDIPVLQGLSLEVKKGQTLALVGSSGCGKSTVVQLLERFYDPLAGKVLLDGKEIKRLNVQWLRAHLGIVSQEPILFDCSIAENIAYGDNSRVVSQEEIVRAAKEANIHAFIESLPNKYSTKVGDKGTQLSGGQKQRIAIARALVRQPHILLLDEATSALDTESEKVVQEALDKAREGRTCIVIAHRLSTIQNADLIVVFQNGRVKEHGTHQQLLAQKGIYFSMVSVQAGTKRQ
Description: (§1) The inhibiting activity of the two compounds on P-gp and MRP1 was evaluated by measuring the transport inhibition of the profluorescent probe calcein-AM (P-gp and MRP1 substrate) in MDCK-MDR1 and MDCK-MRP1 cells (P-gp- and MRP1-overexpressing cells, respectively). The activity on BCRP was instead evaluated using the fluorescent probe Hoechst 33342 (BCRP substrate) in MDCK-BCRP cells (BCRP-overexpressing cells).[43]
(§2) MDCK-MDR1, MDCK-MRP1, and MDCK-BCRP cells are a gift from Prof. P. Borst, NKI-AVL Institute, Amsterdam, The Netherlands. Cells were grown in Dulbecco’s modified Eagle’s medium (DMEM) high glucose supplemented with 10% fetal bovine serum, 2 mM glutamine, 100 U/mL of penicillin, and 100 μg/mL of streptomycin in a humidified incubator at 37 °C with a 5% CO2 atmosphere. Cell culture reagents were purchased from Celbio s.r.l. (Milano, Italy). CulturePlate 96/wells plates were purchased from PerkinElmer Life Science (Waltham, MA) and Falcon (BD Biosciences, Bedford, MA). Calcein-AM and Hoechst 33342 (bisbenzimide H 33342 trihydrochloride) were obtained from Sigma-Aldrich (Milan, Italy). The other reagents were purchased from Sigma Merck Millipore.

MRP1 = target: T2, MRP1 (Homo sapiens, UniProt P33527); experiment: calcein-AM transport inhibition in MDCK-MRP1 cells; format: cell-based; settings: NA, not active
T2 construct: expressed in transfected cells; host or cells: MDCK-MRP1 (Madin-Darby Canine Kidney, transfected; gift from Prof; P. Borst, NKI-AVL)
T2 sequence (P33527 whole entry): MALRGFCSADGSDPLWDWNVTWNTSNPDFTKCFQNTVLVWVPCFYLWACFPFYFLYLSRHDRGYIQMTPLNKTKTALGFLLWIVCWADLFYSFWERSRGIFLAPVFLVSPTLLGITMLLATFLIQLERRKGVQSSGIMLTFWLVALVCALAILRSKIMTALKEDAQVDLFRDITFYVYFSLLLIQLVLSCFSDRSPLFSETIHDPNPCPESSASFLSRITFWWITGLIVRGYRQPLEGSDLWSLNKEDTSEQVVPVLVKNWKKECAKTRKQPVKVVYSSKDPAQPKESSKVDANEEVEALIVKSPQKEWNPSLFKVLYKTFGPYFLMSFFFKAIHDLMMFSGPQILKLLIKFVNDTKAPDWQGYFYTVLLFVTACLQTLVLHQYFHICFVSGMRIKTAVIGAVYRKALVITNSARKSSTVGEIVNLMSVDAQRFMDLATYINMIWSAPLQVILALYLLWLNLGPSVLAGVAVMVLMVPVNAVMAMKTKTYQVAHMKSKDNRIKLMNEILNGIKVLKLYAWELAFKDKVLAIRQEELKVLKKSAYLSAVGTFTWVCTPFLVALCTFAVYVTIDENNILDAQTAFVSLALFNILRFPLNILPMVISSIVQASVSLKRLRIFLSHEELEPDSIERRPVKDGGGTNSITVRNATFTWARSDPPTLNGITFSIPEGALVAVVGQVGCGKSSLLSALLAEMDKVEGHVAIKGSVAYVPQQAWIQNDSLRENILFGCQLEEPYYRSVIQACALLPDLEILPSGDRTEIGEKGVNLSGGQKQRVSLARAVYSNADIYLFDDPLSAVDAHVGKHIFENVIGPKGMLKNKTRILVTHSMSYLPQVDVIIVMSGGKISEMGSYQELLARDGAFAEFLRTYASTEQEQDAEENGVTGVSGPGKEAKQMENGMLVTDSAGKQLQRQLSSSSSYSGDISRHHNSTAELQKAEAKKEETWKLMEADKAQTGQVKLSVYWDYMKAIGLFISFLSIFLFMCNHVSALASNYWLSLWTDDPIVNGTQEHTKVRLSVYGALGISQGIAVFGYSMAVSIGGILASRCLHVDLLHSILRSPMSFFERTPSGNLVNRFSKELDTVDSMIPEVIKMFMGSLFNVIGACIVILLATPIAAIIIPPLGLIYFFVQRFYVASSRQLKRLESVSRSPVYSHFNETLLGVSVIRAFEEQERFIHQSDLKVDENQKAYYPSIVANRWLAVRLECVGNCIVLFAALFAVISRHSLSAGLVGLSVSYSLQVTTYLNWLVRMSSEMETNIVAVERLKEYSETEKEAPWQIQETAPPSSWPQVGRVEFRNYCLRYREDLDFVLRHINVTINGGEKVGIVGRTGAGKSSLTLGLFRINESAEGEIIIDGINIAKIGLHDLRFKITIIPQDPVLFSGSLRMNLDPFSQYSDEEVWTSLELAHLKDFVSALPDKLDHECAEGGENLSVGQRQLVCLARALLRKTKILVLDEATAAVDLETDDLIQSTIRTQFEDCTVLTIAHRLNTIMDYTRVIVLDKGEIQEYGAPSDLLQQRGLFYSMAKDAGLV
Description: as §1, §2

BCRP = target: T3, BCRP (Homo sapiens, UniProt Q9UNQ0); experiment: Hoechst 33342 transport inhibition in MDCK-BCRP cells; format: cell-based; settings: NA, not active
T3 construct: expressed in transfected cells; host or cells: MDCK-BCRP (Madin-Darby Canine Kidney, transfected; gift from Prof; P. Borst, NKI-AVL)
T3 sequence (Q9UNQ0 1-655): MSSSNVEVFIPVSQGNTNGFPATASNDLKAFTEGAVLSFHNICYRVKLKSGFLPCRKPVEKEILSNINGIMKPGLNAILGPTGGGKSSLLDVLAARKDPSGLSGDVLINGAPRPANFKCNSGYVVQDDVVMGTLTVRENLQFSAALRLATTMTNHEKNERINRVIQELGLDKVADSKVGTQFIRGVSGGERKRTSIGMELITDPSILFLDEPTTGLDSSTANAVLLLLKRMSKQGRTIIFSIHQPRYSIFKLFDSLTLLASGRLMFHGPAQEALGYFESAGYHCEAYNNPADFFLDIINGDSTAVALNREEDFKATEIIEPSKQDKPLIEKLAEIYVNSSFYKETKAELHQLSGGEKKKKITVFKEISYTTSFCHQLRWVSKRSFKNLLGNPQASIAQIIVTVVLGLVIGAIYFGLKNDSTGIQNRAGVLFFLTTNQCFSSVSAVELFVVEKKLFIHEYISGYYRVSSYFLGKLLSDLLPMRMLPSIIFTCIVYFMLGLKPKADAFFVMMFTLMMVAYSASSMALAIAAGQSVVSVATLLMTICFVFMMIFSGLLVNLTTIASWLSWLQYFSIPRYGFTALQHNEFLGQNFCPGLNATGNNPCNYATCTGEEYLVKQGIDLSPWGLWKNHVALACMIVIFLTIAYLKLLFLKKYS
Description: as §1, §2

HT29/DOX cells = experiment: intracellular accumulation of doxorubicin in HT29/DOX cells; format: cell-based, human; settings: 24 h with 5 μM doxorubicin, compound at 1 and 3 μM, dose-dependent
Description: (§3) A 50 μL aliquot was sonicated and used for the measurement of the protein content. […] Fluorescence was converted in nmol/mg cell proteins using a calibration curve previously set.

A549/DOX cells = experiment: intracellular accumulation of doxorubicin in A549/DOX cells; format: cell-based, human; settings: 24 h with 5 μM doxorubicin, compound at 1 and 3 μM, dose-dependent
Description: as §3

P-gp KO HT29/DOX cells = experiment: intracellular accumulation of doxorubicin in P-gp KO HT29/DOX cells; format: cell-based, human; settings: 24 h with 5 μM doxorubicin, compound at 1 and 3 μM
Description: as §3

P-gp KO A549/DOX cells = experiment: intracellular accumulation of doxorubicin in P-gp KO A549/DOX cells; format: cell-based, human; settings: 24 h with 5 μM doxorubicin, compound at 1 and 3 μM
Description: as §3

hCA I = hCA I (Homo sapiens, UniProt P00915); experiment: stopped-flow CO2 hydrase assay, hCA I; settings: read-out: Ki hCA I; stopped-flow technique, mean from three different assays
hCA I, sequence (P00915 whole entry): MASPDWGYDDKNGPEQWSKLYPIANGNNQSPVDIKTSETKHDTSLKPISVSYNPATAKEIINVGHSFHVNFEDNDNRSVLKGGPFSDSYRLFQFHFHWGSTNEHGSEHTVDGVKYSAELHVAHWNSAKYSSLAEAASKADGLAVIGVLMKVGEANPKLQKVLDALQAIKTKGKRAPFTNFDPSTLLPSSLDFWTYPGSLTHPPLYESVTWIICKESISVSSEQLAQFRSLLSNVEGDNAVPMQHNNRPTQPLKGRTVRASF
Description: (§4) An SX.18MV-R Applied Photophysics (Oxford, U.K.) stopped-flow instrument has been used to assay the catalytic/inhibition of various CA isozymes.[38] […] The inhibition constants were obtained by nonlinear least-squares methods using the Cheng–Prusoff equation, as reported earlier,[32] and represent the mean from at least three different determinations.

hCA II = hCA II (Homo sapiens, UniProt P00918); experiment: stopped-flow CO2 hydrase assay, hCA II; settings: read-out: Ki hCA II; stopped-flow technique, mean from three different assays
Description: as §4

hCA IX = hCA IX (Homo sapiens, UniProt Q16790); experiment: stopped-flow CO2 hydrase assay, hCA IX; settings: read-out: Ki hCA IX; stopped-flow technique, mean from three different assays
Description: as §4

[1] = stability in human plasma, LC-MS/MS; format: in vitro ADME; settings: reference compound, read-out: half-life (t1/2)
Description: The chemical stability of all of these diester derivatives was evaluated in phosphate-buffered solution (PBS) and human plasma samples. The stability analyses were performed by liquid chromatography coupled with a triple quadrupole mass spectrometry system (LC-MS/MS), operating in multiple reaction monitoring (MRM) mode. The LC-MS/MS instrument and parameters used are reported in the Supporting Information.
In these assays, we monitored the variation of our diester molecules’ concentration at four different incubation times both in PBS and in human plasma samples to evaluate their susceptibility toward spontaneous or enzymatic hydrolysis, respectively. By plotting any variation of analyte concentration vs the incubation time, the corresponding degradation profiles in both the tested matrices were obtained. […] Therefore, by plotting the natural logarithm of the quantitative data versus the incubation time, a linear function can be used, and its slope represents the degradation rate constant (k). Accordingly, with the linear function, the half-life (t1/2) of each tested compound can be calculated as follows [drawing 1] […]
Each set of samples was incubated in triplicate at four different times, 0, 30, 60, and 120 min at 37 °C. […] The obtained sample solutions were analyzed by LC-MS/MS methods described in the Supporting Information.

COc1cc(C(=O)OCCCCCCN(CCCOC(=O)c2cc(OC)c(OC)c(OC)c2)CCCOc2ccc3ccc(=O)oc3c2)cc(OC)c1OC [Compound 14, 6-((3-((2-Oxo-2H-chromen-7-yl)oxy)propyl)(3-((3,4,5-trimethoxybenzoyl)oxy)propyl)amino)hexyl 3,4,5-Trimethoxybenzoate]
EC50 (P-gp): 0.18 ± 0.03 µM | EC50 MRP1 (MRP1): completely inactive | EC50 BCRP (BCRP): completely inactive | intracellular retention of doxorubicin (HT29/DOX cells): increased | intracellular retention of doxorubicin (A549/DOX cells): increased | intracellular retention of doxorubicin (P-gp KO HT29/DOX cells): did not significantly increase | intracellular retention of doxorubicin (P-gp KO A549/DOX cells): did not significantly increase | Ki (hCA I): > 10 µM | Ki (hCA II): > 10 µM | Ki (hCA IX): 0.0827 µM

COc1cc(C(=O)OCCCCCN(CCCOC(=O)c2cc(OC)c(OC)c(OC)c2)CCCOc2ccc3ccc(=O)oc3c2)cc(OC)c1OC [Compound 5, 5-((3-((2-Oxo-2H-chromen-7-yl)oxy)propyl)(3-((3,4,5-trimethoxybenzoyl)oxy)propyl)amino)pentyl 3,4,5-Trimethoxybenzoate]
EC50 (P-gp): 0.15 ± 0.02 µM | EC50 MRP1 (MRP1): completely inactive | EC50 BCRP (BCRP): completely inactive | intracellular retention of doxorubicin (HT29/DOX cells): increased | intracellular retention of doxorubicin (A549/DOX cells): increased | intracellular retention of doxorubicin (P-gp KO HT29/DOX cells): did not significantly increase | intracellular retention of doxorubicin (P-gp KO A549/DOX cells): did not significantly increase | Ki (hCA I): > 10 µM | Ki (hCA II): > 10 µM | Ki (hCA IX): 0.0407 µM

CCOC(=O)C(C)c1cccc(C(=O)c2ccccc2)c1 (centres unmarked) [KEE, ketoprofen ethyl ester]
half-life at 1 μM [1]: ≤ 2 h

COc1cc(C(=O)OCCCCCN(CCCOC(=O)c2c3ccccc3cc3ccccc23)CCCOc2ccc3ccc(=O)oc3c2)cc(OC)c1OC (as salt: hydrochloride) [Compound 6, 3-((3-((2-Oxo-2H-chromen-7-yl)oxy)propyl)(5-((3,4,5-trimethoxybenzoyl)oxy)pentyl)amino)propyl Anthracene-9-carboxylate]
melting point: 114 to 117 °C

COc1cc(C(=O)OCCCN(CCCCCCCOC(=O)c2c3ccccc3cc3ccccc23)CCCOc2ccc3ccc(=O)oc3c2)cc(OC)c1OC (as salt: hydrochloride) [Compound 26, 7-((3-((2-Oxo-2H-chromen-7-yl)oxy)propyl)(3-((3,4,5-trimethoxybenzoyl)oxy)propyl)amino)heptyl Anthracene-9-carboxylate]
melting point: 97 to 99 °C

O=C(OCCCCCCCN(CCCOC(=O)c1c2ccccc2cc2ccccc12)CCCOc1ccc2ccc(=O)oc2c1)c1c2ccccc2cc2ccccc12 (as salt: hydrochloride) [Compound 27, 3-((7-((Anthracene-9-carbonyl)oxy)heptyl)(3-((2-oxo-2H-chromen-7-yl)oxy)propyl)amino)propyl Anthracene-9-carboxylate]
melting point: 117 to 119 °C

COc1cc(C(=O)OCCCN(CCCCCOC(=O)c2c3ccccc3cc3ccccc23)CCCOc2ccc3ccc(=O)oc3c2)cc(OC)c1OC (as salt: hydrochloride) [Compound 8, 5-((3-((2-Oxo-2H-chromen-7-yl)oxy)propyl)(3-((3,4,5-trimethoxybenzoyl)oxy)propyl)amino)pentyl Anthracene-9-carboxylate]
melting point: 120 to 123 °C

COc1cc(/C=C/C(=O)OCCCN(CCCCCOC(=O)c2cc(OC)c(OC)c(OC)c2)CCCOc2ccc3ccc(=O)oc3c2)cc(OC)c1OC (as salt: hydrochloride) [Compound 4, (E)-5-((3-((2-Oxo-2H-chromen-7-yl)oxy)propyl)(3-((3-(3,4,5-trimethoxyphenyl)acryloyl)oxy)propyl)amino)pentyl 3,4,5-Trimethoxybenzoate]
melting point: 74 to 77 °C
